One block for each compound: values may come before it. Calls of active or inactive are those of the source. The rule behind the calls is not given here.
Experiments:
[1] = molecular target: Phosphatidylinositol 4,5-bisphosphate 3-kinase catalytic subunit alpha isoform (Homo sapiens, UniProt P42336); assay: Inhibition of PI3Kalpha
[2] = Half life in rat at 1 mg/kg, po; assay type: ADME, organism-based; parameters: dose 1 mg/kg, route oral; details: in vivo
[3] = tested on: KPL4; assay: Antitumor activity against human KPL4 cells expressing PI3Kalpha H1047R mutant xenografted in mouse assessed as tumor regression at 12.5 mg/kg, po administered intermittent dosing schedule 5 days on/2 days off; assay type: functional, organism-based; parameters: dose 12.5 mg/kg
[4] = AUC (infinity) in rat at 0.5 mg/kg, iv; assay type: ADME, organism-based; parameters: dose 0.5 mg/kg, route intravenous, time infinity; details: plasma
[5] = Clearance in dog at 0.25 mg/kg, iv; assay type: ADME, organism-based, Canis lupus familiaris; parameters: dose 0.25 mg/kg, route intravenous; details: in vivo
[6] = molecular target: Phosphatidylinositol 4-phosphate 3-kinase C2 domain-containing subunit beta (Homo sapiens, UniProt O00750); assay: Inhibition of PI3KC2beta
Chain of Phosphatidylinositol 4-phosphate 3-kinase C2 domain-containing subunit beta (O00750 whole entry, the tested form may be a part): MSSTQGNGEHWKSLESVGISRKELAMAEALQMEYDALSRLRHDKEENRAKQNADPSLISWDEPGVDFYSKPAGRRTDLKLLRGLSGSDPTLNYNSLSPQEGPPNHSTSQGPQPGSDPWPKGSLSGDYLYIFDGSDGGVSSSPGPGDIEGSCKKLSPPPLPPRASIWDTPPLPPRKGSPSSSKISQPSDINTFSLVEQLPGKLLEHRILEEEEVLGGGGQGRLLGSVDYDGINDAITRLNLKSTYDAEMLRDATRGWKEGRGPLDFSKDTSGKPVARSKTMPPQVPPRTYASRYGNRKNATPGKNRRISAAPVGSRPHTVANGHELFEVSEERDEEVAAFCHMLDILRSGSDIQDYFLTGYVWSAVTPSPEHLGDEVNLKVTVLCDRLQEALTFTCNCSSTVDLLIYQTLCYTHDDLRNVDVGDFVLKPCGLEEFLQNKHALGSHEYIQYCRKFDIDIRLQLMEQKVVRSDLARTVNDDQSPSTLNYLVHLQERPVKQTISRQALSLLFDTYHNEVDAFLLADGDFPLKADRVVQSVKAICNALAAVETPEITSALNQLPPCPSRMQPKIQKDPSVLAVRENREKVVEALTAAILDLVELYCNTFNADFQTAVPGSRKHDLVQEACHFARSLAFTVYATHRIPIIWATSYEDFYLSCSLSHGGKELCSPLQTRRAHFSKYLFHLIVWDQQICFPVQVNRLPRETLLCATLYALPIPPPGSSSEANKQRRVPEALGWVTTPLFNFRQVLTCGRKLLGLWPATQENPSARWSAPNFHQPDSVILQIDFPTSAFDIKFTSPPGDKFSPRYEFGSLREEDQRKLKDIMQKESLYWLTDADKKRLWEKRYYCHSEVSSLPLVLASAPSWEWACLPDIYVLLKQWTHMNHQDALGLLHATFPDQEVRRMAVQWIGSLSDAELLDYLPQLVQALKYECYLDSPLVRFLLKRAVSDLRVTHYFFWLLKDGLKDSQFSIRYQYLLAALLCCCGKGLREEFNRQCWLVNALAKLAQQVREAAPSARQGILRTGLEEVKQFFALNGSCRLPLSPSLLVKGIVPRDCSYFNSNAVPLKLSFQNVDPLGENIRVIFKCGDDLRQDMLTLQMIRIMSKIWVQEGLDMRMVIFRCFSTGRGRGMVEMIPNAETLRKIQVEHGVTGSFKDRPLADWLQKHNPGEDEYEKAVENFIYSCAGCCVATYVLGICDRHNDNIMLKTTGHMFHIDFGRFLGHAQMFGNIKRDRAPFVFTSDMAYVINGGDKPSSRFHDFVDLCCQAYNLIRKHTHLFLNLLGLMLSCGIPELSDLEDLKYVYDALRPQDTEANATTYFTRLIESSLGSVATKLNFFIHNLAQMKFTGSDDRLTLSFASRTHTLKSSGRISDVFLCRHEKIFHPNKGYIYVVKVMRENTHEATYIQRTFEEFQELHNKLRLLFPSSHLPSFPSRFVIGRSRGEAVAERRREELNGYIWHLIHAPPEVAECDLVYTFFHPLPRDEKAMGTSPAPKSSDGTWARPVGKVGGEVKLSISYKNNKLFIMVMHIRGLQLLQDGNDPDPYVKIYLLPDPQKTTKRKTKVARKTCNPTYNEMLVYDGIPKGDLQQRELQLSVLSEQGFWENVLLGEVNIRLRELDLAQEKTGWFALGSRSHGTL

[7] = tested on: PC-3; assay: In vivo antitumor activity against human PC3 cells in xenograft model assessed as inhibition of tumor growth at 25 mg/kg, po qd for 11 days relative to control; assay type: functional; details: PC-3, 264 h
[8] = Clearance in mouse at 2 mg/kg, iv; assay type: ADME, organism-based; parameters: dose 2 mg/kg, route intravenous; details: in vivo
[9] = Half life in mouse at 1 mg/kg, po; assay type: ADME, organism-based; parameters: dose 1 mg/kg, route oral; details: in vivo
[10] = molecular target: Phosphatidylinositol 3-kinase catalytic subunit type 3 (Homo sapiens, UniProt Q8NEB9); assay: Inhibition of Vps34
[11] = AUC (infinity) in rat at 1 mg/kg, po; assay type: ADME, organism-based; parameters: time infinity, dose 1 mg/kg, route oral; details: plasma
[12] = Half life in monkey at 0.25 mg/kg, iv; assay type: ADME, organism-based, Macaca mulatta; parameters: dose 0.25 mg/kg, route intravenous; details: rhesus monkey, in vivo
[13] = AUC (infinity) in mouse at 1 mg/kg, po; assay type: ADME, organism-based; parameters: time infinity, dose 1 mg/kg, route oral; details: plasma
[14] = Tmax in monkey at 1 mg/kg, po; assay type: ADME, organism-based, Macaca mulatta; parameters: dose 1 mg/kg, route oral; details: rhesus monkey, in vivo
[15] = Tmax in dog at 1 mg/kg, po; assay type: ADME, organism-based, Canis lupus familiaris; parameters: dose 1 mg/kg, route oral; details: in vivo
[16] = AUC (infinity) in mouse at 2 mg/kg, iv; assay type: ADME, organism-based; parameters: time infinity, dose 2 mg/kg, route intravenous; details: plasma
[17] = Oral bioavailability in rat at 1 mg/kg; assay type: ADME, organism-based; details: in vivo
[18] = Clearance in monkey at 0.25 mg/kg, iv; assay type: ADME, organism-based, Macaca mulatta; parameters: dose 0.25 mg/kg, route intravenous; details: rhesus monkey, in vivo
[19] = Oral bioavailability in mouse; assay type: ADME, organism-based; details: in vivo
[20] = molecular target: Serine/threonine-protein kinase mTOR (Homo sapiens, UniProt P42345); assay: Inhibition of mTOR
[21] = AUC (infinity) in dog at 1 mg/kg, po; assay type: ADME, organism-based, Canis lupus familiaris; parameters: time infinity, dose 1 mg/kg, route oral; details: plasma
[22] = molecular target: Phosphatidylinositol 4-phosphate 3-kinase C2 domain-containing subunit alpha (Homo sapiens, UniProt O00443); assay: Inhibition of PI3KC2alpha
Chain of Phosphatidylinositol 4-phosphate 3-kinase C2 domain-containing subunit alpha (O00443 whole entry, the tested form may be a part): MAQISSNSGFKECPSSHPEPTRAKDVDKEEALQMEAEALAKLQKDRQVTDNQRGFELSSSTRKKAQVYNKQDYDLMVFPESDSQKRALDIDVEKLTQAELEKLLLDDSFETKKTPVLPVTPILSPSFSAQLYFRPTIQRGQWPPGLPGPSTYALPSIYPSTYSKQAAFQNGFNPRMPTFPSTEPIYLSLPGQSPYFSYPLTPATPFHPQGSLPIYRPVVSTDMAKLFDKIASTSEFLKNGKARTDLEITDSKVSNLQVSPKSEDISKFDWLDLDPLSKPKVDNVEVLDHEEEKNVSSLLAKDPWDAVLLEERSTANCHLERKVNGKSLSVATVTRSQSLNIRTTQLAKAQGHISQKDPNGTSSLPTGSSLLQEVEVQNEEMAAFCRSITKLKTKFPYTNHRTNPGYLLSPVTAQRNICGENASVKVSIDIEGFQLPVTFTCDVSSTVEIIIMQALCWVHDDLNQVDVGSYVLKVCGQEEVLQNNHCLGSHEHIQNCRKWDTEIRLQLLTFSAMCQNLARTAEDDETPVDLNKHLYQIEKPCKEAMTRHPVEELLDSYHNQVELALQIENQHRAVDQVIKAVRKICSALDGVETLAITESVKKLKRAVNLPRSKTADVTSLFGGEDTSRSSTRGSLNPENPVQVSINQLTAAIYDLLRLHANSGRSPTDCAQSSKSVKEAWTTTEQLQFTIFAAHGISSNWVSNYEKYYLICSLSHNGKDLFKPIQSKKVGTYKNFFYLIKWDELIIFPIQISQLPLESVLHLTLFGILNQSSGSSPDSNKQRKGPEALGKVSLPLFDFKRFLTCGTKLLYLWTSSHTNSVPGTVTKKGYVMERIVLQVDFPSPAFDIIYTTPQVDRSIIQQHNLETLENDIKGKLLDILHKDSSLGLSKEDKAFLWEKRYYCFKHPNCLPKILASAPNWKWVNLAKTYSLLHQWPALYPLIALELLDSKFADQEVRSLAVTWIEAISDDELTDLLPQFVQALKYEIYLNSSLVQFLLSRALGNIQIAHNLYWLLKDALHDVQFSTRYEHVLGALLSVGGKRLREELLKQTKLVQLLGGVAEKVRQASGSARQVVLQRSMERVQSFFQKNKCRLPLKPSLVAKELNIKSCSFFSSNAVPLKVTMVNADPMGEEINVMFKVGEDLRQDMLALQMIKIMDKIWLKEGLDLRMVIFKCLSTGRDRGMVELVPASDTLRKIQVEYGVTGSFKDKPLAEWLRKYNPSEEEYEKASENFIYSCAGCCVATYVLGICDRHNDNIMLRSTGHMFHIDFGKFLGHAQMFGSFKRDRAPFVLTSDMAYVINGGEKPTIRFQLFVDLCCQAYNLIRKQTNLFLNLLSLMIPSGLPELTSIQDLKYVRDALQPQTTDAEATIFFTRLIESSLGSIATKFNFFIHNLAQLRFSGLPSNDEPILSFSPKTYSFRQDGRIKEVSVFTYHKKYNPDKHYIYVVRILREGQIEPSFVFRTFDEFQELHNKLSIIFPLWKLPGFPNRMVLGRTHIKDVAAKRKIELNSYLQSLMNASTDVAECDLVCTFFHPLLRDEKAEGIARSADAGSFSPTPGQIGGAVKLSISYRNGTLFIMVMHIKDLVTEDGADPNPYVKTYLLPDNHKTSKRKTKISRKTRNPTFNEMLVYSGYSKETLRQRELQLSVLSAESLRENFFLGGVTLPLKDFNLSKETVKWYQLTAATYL

[23] = AUC (infinity) in dog at 0.25 mg/kg, iv; assay type: ADME, organism-based, Canis lupus familiaris; parameters: time infinity, dose 0.25 mg/kg, route intravenous; details: plasma
[24] = Oral bioavailability in dog at 1 mg/kg; assay type: ADME, organism-based, Canis lupus familiaris; details: in vivo
[25] = Half life in dog at 0.25 mg/kg, iv; assay type: ADME, organism-based, Canis lupus familiaris; parameters: dose 0.25 mg/kg, route intravenous; details: in vivo
[26] = Inhibition of protein kinase
[27] = tested on: KPL4; assay: Antitumor activity against human KPL4 cells expressing PI3Kalpha H1047R mutant xenografted in mouse assessed as tumor regression at 12.5 mg/kg, po administered intermittent dosing schedule qd for 2 weeks on/1 week off; assay type: functional, organism-based; parameters: dose 12.5 mg/kg
[28] = Clearance in rat at 0.5 mg/kg, iv; assay type: ADME, organism-based; parameters: dose 0.5 mg/kg, route intravenous; details: in vivo
[29] = Half life in human liver microsomes; assay type: ADME, Microsome
[30] = Tmax in rat at 1 mg/kg, po; assay type: ADME, organism-based; parameters: dose 1 mg/kg, route oral; details: in vivo
[31] = tested on: KPL4; assay: Antitumor activity against human KPL4 cells expressing PI3Kalpha H1047R mutant xenografted in mouse assessed as tumor regression at 12.5 mg/kg, po for 6 weeks; assay type: functional, organism-based; parameters: dose 12.5 mg/kg
[32] = Oral bioavailability in monkey at 1 mg/kg; assay type: ADME, organism-based, Macaca mulatta; details: rhesus monkey, in vivo
[33] = Oral bioavailability in mouse at 1 mg/kg; assay type: ADME, organism-based; details: in vivo
[34] = Half life in monkey at 1 mg/kg, po; assay type: ADME, organism-based, Macaca mulatta; parameters: dose 1 mg/kg, route oral; details: rhesus monkey, in vivo
[35] = Half life in mouse at 2 mg/kg, iv; assay type: ADME, organism-based; parameters: dose 2 mg/kg, route intravenous; details: in vivo
[36] = Tmax in mouse at 1 mg/kg, po; assay type: ADME, organism-based; parameters: dose 1 mg/kg, route oral; details: in vivo
[37] = Half life in rat at 0.5 mg/kg, iv; assay type: ADME, organism-based; parameters: dose 0.5 mg/kg, route intravenous; details: in vivo
[38] = AUC (infinity) in monkey at 1 mg/kg, po; assay type: ADME, organism-based, Macaca mulatta; parameters: time infinity, dose 1 mg/kg, route oral; details: rhesus monkey, plasma
[39] = Half life in dog at 1 mg/kg, po; assay type: ADME, organism-based, Canis lupus familiaris; parameters: dose 1 mg/kg, route oral; details: in vivo
[40] = Antiproliferative activity against human KPL4 cells; assay type: functional, cell-based
[41] = Half life in human liver microsomes assessed as glucuronidation; assay type: ADME, Microsome
[42] = tested on: PC-3; assay: In vivo antitumor activity against human PC3 cells in xenograft model assessed as inhibition of tumor growth at 100 mg/kg, po qd for 11 days relative to control; assay type: functional; details: PC-3, 264 h

Chain of Phosphatidylinositol 4,5-bisphosphate 3-kinase catalytic subunit alpha isoform (P42336 whole entry, canonical isoform): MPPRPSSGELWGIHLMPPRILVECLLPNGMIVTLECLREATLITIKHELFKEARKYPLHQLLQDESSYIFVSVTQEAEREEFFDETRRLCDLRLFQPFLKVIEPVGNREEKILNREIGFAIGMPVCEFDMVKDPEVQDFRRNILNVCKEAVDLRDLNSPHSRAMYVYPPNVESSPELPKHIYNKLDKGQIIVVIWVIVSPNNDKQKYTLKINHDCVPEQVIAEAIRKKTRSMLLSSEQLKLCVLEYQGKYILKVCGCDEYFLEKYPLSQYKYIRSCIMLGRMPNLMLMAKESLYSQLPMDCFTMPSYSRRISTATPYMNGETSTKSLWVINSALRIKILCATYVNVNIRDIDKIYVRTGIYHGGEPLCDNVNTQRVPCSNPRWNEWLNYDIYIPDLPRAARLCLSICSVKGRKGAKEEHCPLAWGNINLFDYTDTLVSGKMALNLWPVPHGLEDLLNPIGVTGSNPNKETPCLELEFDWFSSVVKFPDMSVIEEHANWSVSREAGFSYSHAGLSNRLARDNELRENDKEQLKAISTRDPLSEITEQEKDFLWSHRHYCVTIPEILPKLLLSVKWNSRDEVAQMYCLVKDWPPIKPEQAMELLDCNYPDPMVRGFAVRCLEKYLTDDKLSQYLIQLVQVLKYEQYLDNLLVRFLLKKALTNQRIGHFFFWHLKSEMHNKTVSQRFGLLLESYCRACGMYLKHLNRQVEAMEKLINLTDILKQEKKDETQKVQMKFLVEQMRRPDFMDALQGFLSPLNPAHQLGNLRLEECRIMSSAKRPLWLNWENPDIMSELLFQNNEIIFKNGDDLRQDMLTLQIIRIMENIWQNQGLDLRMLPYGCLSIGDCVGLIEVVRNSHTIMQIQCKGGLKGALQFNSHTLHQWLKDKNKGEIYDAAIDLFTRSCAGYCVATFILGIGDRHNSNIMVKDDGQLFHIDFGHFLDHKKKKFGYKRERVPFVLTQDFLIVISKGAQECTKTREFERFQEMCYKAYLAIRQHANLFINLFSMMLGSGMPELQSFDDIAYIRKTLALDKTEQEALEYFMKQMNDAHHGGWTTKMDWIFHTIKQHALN

Compound: Oc1cccc(-c2nc(N3CCOCC3)nc3c2CCN3c2ccc3nc[nH]c3c2)c1
IC50 [1]: 77 nM

Compound: Oc1cccc(-c2nc(N3CCOCC3)nc3c2CCN3c2cccnc2)c1
IC50 [1]: 41 nM

Compound: Nc1ncc(-c2nc(N3CCOCC3)nc3c2CCN3c2cccnc2)cn1
IC50 [40]: 15 nM
IC50 [1]: 33 nM
bioavailability [19]: 41%
half-life [41]: > 60 min
half-life [29]: 71 min
inhibition in vivo at 100 mg/kg [42]: 112%

The next lines start with results.

half-life [2]: 210 min
AUC(0-inf) [4]: 1350 ng·h/mL
clearance [5]: 6.4 mL/min/kg
IC50 [6]: 5.3 µM
clearance [8]: 17.5 mL/min/kg
half-life [9]: 228 min
IC50 [10]: > 10 µM
AUC(0-inf) [11]: 1790 ng·h/mL
half-life [12]: 192 min
AUC(0-inf) [13]: 978 ng·h/mL
Tmax [14]: 4 h
Tmax [15]: 4.5 h
AUC(0-inf) [16]: 1930 ng·h/mL
bioavailability [17]: 66.2%
clearance [18]: 6.2 mL/min/kg
bioavailability [19]: 101%
IC50 [20]: 1600 nM
AUC(0-inf) [21]: 1430 ng·h/mL
IC50 [22]: > 10 µM
AUC(0-inf) [23]: 660 ng·h/mL
bioavailability [24]: 54.2%
half-life [25]: 96 min
IC50 [26]: > 10 µM
clearance [28]: 6.3 mL/min/kg
half-life [29]: > 360 min
Tmax [30]: 48 min
bioavailability [32]: 78.4%
bioavailability [33]: 101%
half-life [34]: 402 min
half-life [35]: 102 min
Tmax [36]: 15 min
half-life [37]: 156 min
AUC(0-inf) [38]: 2170 ng·h/mL
half-life [39]: 198 min
Compound: CS(=O)(=O)N1CCc2c(-c3cnc(N)nc3)nc(N3CCOCC3)nc21 [IZORLISIB]
Activity [3]: Active
inhibition in vivo at 25 mg/kg [7]: 101%
Activity [27]: Active
Activity [31]: Active

IC50 [1]: 8.6 nM
bioavailability [19]: 1.6%
half-life [41]: 11 min
half-life [29]: 21 min
Compound: Oc1cccc(-c2nc(N3CCOCC3)nc3c2CCN3c2ccncc2)c1
IC50 [40]: 450 nM

Source: ChEMBL document CHEMBL1681712, “Discovery and biological activity of a novel class I PI3K inhibitor, CH5132799” (Bioorg Med Chem Lett, 2011)
